According to US20210387983A1, “CRYSTALLINE ALK5 INHIBITORS AND USES THEREOF” (THERAVANCE BIOPHARMA R&D IP, LLC, priority 2020, published 2021):

Experiment: Dynamic moisture sorption (DMS) analysis
Format: physicochemical
Conditions: for XRPD pattern of solid after two consecutive sorption-desorption cycles: 5-90% RH, 25° C.; for total moisture gain: exposed to 5-90% relative humidity, about 25° C.; for hygroscopicity: from DMS data
Procedure: Dynamic moisture sorption (DMS) analysis was performed on weighed samples of the crystalline forms of the compound of Formula I using a VTI atmospheric microbalance, SGA-100 system (VTI Corp., Hialeah, Fla. 33016). Following an initial drying step (approximately 0% RH) of 2 hours, two cycles of sorption and desorption were completed isothermally at 25° C. at a scan rate of 5% RH/step over a humidity range of 5 to 90% RH. Representative DMS traces of polymorph Form I and polymorph Form II of a fumarate salt of the compound of Formula I and polymorph Form III of the compound of Formula I (freebase) are shown in FIG. 4, FIG. 8 and FIG. 12, respectively.

Row | Structure (SMILES) | XRPD pattern of solid after two consecutive sorption-desorption cycles | total moisture gain | hygroscopicity
1 | C[C@@H]1CN(CCNc2cnc3ccc(-c4nc[nH]c4-c4cc(Cl)ccc4F)nc3c2)C[C@H](C)N1.O=C(O)/C=C/C(=O)O [polymorph Form II, 6-(5-(5-chloro-2-fluorophenyl)-1H-imidazol-4-yl)-N-(2-((3S,5R)-3,5-dimethylpiperazin-1-yl)ethyl)-1,5-naphthyridin-3-amine, fumaric Acid] | no change in form | about 0.85 % by weight | slightly-hygroscopic
2 | C[C@@H]1CN(CCNc2cnc3ccc(-c4nc[nH]c4-c4cc(Cl)ccc4F)nc3c2)C[C@H](C)N1.O=C(O)/C=C/C(=O)O [polymorph Form I, 6-(5-(5-chloro-2-fluorophenyl)-1H-imidazol-4-yl)-N-(2-((3S,5R)-3,5-dimethylpiperazin-1-yl)ethyl)-1,5-naphthyridin-3-amine, fumaric Acid] | no change in form | about 1.30 % by weight | slightly-hygroscopic
3 | C[C@@H]1CN(CCNc2cnc3ccc(-c4nc[nH]c4-c4cc(Cl)ccc4F)nc3c2)C[C@H](C)N1 [polymorph Form III, 6-(5-(5-chloro-2-fluorophenyl)-1H-imidazol-4-yl)-N-(2-((3S,5R)-3,5-dimethylpiperazin-1-yl)ethyl)-1,5-naphthyridin-3-amine] | no change in form | about 0.6 % by weight | slightly-hygroscopic
